Series [1] is described as follows: Percent drug content change of coated cobalt-chromium 18 mm stent over 0 to 12 weeks (FIG. 1). In kind it is physicochemical. As to conditions: 0.02 weight percent BHT per total basecoat solids; 8 weeks and 12 weeks, ambient conditions (25° C.). An excerpt: Referring to FIG. 1, there is illustrated in graphical format, the results of the same drug screening as described above with the solution applied to a cobalt-chromium, 18 mm stent. In this test, two sets of solution samples were utilized, one with sirolimus and polymer solution containing the antioxidant and one with sirolimus and polymer solution containing no antioxidant. The antioxidant utilized was 0.02 weight percent BHT per total basecoat solids. The test was utilized to determine the percent drug content change over a time period of 0 to 12 weeks under two conditions; namely, 40° C. with 75 percent relative humidity, and ambient conditions (25° C.).

Series [2] in a line: Drug concentration in liquid formulations by liquid chromatography / HPLC. In kind it is physicochemical. An excerpt:
A series of liquid formulations were developed for the local or regional delivery of water insoluble compounds such as sirolimus and its analogs, including CCI-779, ABT-578 and everolimus, through weeping balloons and catheter injection needles. Sirolimus and its analogs are rapamycins. These liquid formulations increase the apparent solubility of the pharmacologically active but water insoluble compounds by two to four orders of magnitude as compared to the solubility limits of the compounds in water. These liquid formulations rely on the use of a very small amount of organic solvents such as Ethanol and a larger amount of safe amphiphilic (of or relating to a molecule having a polar, water soluble group attached to a non-polar, water insoluble […]) excipients such as polyethylene glycol (PEG 200, PEG 400) and vitamin E TPGS to enhance the solubility of the compounds. These liquid formulations of highly water insoluble compounds are stable and readily flowable at room temperature. Certain excipients, such as Vitamin E TPGS and BHT may be utilized to enhance the storage stability of sirolimus compounds through their anti-oxidation properties.
Table 7, shown below, summarizes the concentrations of the excipient, the co-solvents and the drug for four different liquid formulations. […]

Series [3] can be described thus: Sirolimus tissue concentration in porcine coronary arteries by LC-MS. The series is classed as in vivo. To be noted: 50 mg/ml. Here is the method:
In accordance with a second experiment, the efficacy of a PTCA balloon coated with the 5 percent BHT solution was tested in a porcine injury model. The balloon coating formulation of sirolimus and BHT (5 percent BHT, w/w) was made according to the procedure described above. In total, three coating solutions of sirolimus and BHT (5 percent BHT, w/w) and one coating solution without BHT were prepared for the study. A standard CYPHER® Sirolimus-eluting Coronary Stent available from the Cordis Corporation was used as a control for the study. Both FIRE STAR® PTCA balloons (3.5 mm×20 mm, with total surface area of 220 mm^2) with hydrophilic treatment and the ones without a hydrophilic treatment were tested in the study. The final coating density of sirolimus and sirolimus loss during expansion were measured by HPLC. The tissue concentration in the porcine coronary arteries was measured by liquid chromatography-mass spectroscopy (LC-MS). The amount of intimal hyperplasia was determined by standard quantitative coronary angiography (QCA) at day 30.

The procedure of series [4]: Table 9, shown below, summarizes a number of injectable liquid formulations of paclitaxel utilizing combinations of ethanol, PEG 400 and water. Specifically, the formulations set forth in Table 9 were made and analyzed for their concentrations of its various constituents. The concentrations are determined by liquid chromatography and are presented as weight by volume figures. The concentration of ethanol is preferably two or less percent so as to avoid ethanol becoming an active ingredient in the formulation.
Another aqueous liquid or injectable formulation of paclitaxel is made utilizing ethanol, PEG 400 and water, and ethanol, Vitamin E TPGS, PEG400 and water. In making the first formulation, 100 mg of paclitaxel is added to 400 μl of ethanol in a pre-weighed 20 ml scintillation vial. The mixture of paclitaxel and ethanol is vortexed and heated in a 60 degree C. bath for ten minutes. Once the drug is completely solubilized, 20 ml of PEG 400 is then added to make the final paclitaxel concentration 5 mg/ml. […] In a separate experiment, a series of 20 ml scintillation vials containing Vitamin E TPGS are heated or warmed up in a 50 degree C. water bath for ten minutes. Concurrently, distilled water is also warmed in a 50 degree C. water bath. […]

Data on four compounds can be found in patent US20120302954A1, “EXPANDABLE DEVICES COATED WITH A PACLITAXEL COMPOSITION” (priority 2011, published 2012).

With `Cc1cc(C(C)(C)C)c(O)c(C(C)(C)C)c1` [BHT, butylated hydroxytoluene], the “percent drug content change (drug degradation)” value in series [1] was “lessens drug degradation”.
Turning to `CO[C@H]1C[C@@H]2CC[C@@H](C)[C@@](O)(O2)C(=O)C(=O)N2CCCC[C@H]2C(=O)O[C@H]([C@H](C)C[C@@H]2CC[C@@H](OC(=O)C(C)(CO)CO)[C@H](OC)C2)CC(=O)[C@H](C)/C=C(\C)[C@@H](O)[C@@H](OC)C(=O)[C@H](C)C[C@H](C)/C=C/C=C/C=C/1C` [CCI-779], the “concentration in the final solution (HPLC assay)” value in series [2] (ethanol less than two percent, Vitamin E TPGS, water) is 15000 µg/mL.
`CO[C@H]1C[C@@H]2CC[C@@H](C)[C@@](O)(O2)C(=O)C(=O)N2CCCC[C@H]2C(=O)O[C@H]([C@H](C)C[C@@H]2CC[C@@H](O)[C@H](OC)C2)CC(=O)[C@H](C)/C=C(\C)[C@@H](O)[C@@H](OC)C(=O)[C@H](C)C[C@H](C)/C=C/C=C/C=C/1C` [Rapamycin, rapamycin]: the “Sirolimus conc in artery tissue post-deploy” value (from here on “Sirolimus conc”) in series [3] (20 min, hydrophilic coat No, Acetone/ethanol/water (50/40/10), BHT 5% (PKd)) turned out to be 382 ± 190 ng sirolimus/mg tissue; in series [3] (20 min, hydrophilic coat No, IPA/Water (3.4/1), BHT 5% (PKb)) it was 218 ± 96 ng sirolimus/mg tissue; in series [3] (20 min, hydrophilic coat yes, IPA/Water (3.4/1), BHT 0% (PKc)), 219 ± 85 ng sirolimus/mg tissue; in series [3] (20 min, hydrophilic coat yes, IPA/Water (3.4/1), BHT 5% (Pka)), 313 ± 61 ng sirolimus/mg tissue; in series [3] (24 hr, hydrophilic coat No, Acetone/ethanol/water (50/40/10), BHT 5% (PKd)), 25 ± 20 ng sirolimus/mg tissue; in series [3] (24 hr, hydrophilic coat No, IPA/Water (3.4/1), BHT 5% (PKb)), 39 ± 37 ng sirolimus/mg tissue. The “Sirolimus conc” value in series [3] (24 hr, hydrophilic coat yes, IPA/Water (3.4/1), BHT 0% (PKc)) worked out at 16 ± 11 ng sirolimus/mg tissue; in series [3] (24 hr, hydrophilic coat yes, IPA/Water (3.4/1), BHT 5% (Pka)), 40.7 ± 14.6 ng sirolimus/mg tissue; in series [3] (8 day, hydrophilic coat No, Acetone/ethanol/water (50/40/10), BHT 5% (PKd)), 21 ± 36 ng sirolimus/mg tissue; in series [3] (8 day, hydrophilic coat No, IPA/Water (3.4/1), BHT 5% (PKb)), 14 ± 15 ng sirolimus/mg tissue; in series [3] (8 day, hydrophilic coat yes, IPA/Water (3.4/1), BHT 0% (PKc)) it was 16 ± 18 ng sirolimus/mg tissue; in series [3] (8 day, hydrophilic coat yes, IPA/Water (3.4/1), BHT 5% (Pka)), 9.8 ± 10.4 ng sirolimus/mg tissue. For the same compound, the “Sirolimus conc” value in series [3] (30 day, hydrophilic coat No, Acetone/ethanol/water (50/40/10), BHT 5% (PKd)) is reported as 12 ± 18 ng sirolimus/mg tissue; in series [3] (30 day, hydrophilic coat No, IPA/Water (3.4/1), BHT 5% (PKb)), 5.0 ± 4.8 ng sirolimus/mg tissue; in series [3] (30 day, hydrophilic coat yes, IPA/Water (3.4/1), BHT 0% (PKc)) it was 3.2 ± 2.8 ng sirolimus/mg tissue; in series [3] (30 day, hydrophilic coat yes, IPA/Water (3.4/1), BHT 5% (Pka)) it was 8.4 ± 5.7 ng sirolimus/mg tissue. Further, the “concentration in the 4 mg/ml PEG 200 formulation relative to the solubility in water” value in series [2] (PEG 200 excipient, ethanol and water co-solvents) was “four hundred to about one thousand”.
As for `CC(=O)O[C@H]1C(=O)[C@@]2(C)[C@H]([C@H](OC(=O)c3ccccc3)[C@]3(O)C[C@H](OC(=O)[C@H](O)[C@@H](NC(=O)c4ccccc4)c4ccccc4)C(C)=C1C3(C)C)[C@]1(OC(C)=O)CO[C@@H]1C[C@@H]2O` [paclitaxel], the “fold higher than the solubility in water” value in series [4] is listed as “about 1000 fold”. The “concentration reached in true aqueous liquid formulations” value in series [4] (PEG 400 / Vitamin E TPGS / ethanol / water) was “up to 2.5 mg/ml”.
